Data taken from ChEMBL document CHEMBL1136268, “Retinoic acid receptor ligands based on the 6-cyclopropyl-2,4-hexadienoic acid” (Bioorg Med Chem Lett, 2003).
Positions count from the first letter of the chain named.

Tests used:
[1] = biological target: T1, Retinoic acid receptor gamma (Homo sapiens, UniProt P13631); assay: Inhibition of [3H]ATRA binding to human Retinoic acid receptor RAR gamma
T1 sequence (P13631 whole entry): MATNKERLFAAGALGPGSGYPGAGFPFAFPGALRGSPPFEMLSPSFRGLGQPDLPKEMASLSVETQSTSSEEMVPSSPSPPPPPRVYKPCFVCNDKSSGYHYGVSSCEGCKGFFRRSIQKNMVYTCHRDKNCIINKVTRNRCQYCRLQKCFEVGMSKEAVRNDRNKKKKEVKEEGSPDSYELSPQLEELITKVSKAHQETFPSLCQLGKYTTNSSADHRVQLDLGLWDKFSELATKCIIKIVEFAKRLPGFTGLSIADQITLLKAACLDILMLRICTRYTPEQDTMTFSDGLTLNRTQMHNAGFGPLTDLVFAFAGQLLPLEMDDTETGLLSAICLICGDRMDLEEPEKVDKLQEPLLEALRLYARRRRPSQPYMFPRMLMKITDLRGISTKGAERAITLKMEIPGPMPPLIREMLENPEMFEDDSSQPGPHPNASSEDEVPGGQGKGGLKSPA

[2] = biological target: T2, Retinoic acid receptor RXR-alpha (Homo sapiens, UniProt P19793); assay: Inhibition of [3H]9-cis-RA binding to human Retinoid X receptor RXR alpha
T2 sequence (P19793 whole entry): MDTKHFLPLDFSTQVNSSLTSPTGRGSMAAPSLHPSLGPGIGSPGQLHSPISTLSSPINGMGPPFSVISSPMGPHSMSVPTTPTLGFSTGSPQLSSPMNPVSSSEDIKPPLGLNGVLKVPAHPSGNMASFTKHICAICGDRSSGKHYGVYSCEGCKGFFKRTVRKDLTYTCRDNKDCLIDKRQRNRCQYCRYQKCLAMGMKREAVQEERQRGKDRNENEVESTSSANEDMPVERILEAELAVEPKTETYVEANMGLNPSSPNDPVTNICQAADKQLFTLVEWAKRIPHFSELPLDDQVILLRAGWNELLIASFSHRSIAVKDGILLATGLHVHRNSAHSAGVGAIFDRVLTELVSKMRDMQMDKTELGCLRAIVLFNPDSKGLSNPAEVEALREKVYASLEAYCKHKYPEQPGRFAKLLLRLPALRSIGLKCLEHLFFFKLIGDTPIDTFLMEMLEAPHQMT

[3] = biological target: T3, Retinoic acid receptor beta (Homo sapiens, UniProt P10826); assay: Transcriptional activation in CV-1 cells expressing human Retinoic acid receptor RAR beta; format: cell-based
T3 sequence (P10826 whole entry): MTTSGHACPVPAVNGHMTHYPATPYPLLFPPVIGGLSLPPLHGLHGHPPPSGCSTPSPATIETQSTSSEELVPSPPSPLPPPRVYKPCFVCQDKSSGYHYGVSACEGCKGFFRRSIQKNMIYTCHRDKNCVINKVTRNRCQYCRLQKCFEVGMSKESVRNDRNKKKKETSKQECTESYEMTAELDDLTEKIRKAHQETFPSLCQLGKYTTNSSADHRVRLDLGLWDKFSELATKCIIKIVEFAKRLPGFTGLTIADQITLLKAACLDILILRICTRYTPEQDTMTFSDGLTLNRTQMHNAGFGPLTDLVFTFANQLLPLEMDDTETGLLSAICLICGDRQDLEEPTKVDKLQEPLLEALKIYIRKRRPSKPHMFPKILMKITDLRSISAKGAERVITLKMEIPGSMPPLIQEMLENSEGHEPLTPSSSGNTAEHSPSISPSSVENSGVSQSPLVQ

[4] = biological target: T3, Retinoic acid receptor beta; assay: Inhibition of [3H]-ATRA binding to human Retinoic acid receptor RAR beta
[5] = biological target: T4, Retinoic acid receptor RXR-gamma (Mus musculus, UniProt P28705); assay: Transcriptional activation in CV-1 cells expressing mouse Retinoid X receptor RXR gamma; format: cell-based
T4 sequence (P28705 whole entry): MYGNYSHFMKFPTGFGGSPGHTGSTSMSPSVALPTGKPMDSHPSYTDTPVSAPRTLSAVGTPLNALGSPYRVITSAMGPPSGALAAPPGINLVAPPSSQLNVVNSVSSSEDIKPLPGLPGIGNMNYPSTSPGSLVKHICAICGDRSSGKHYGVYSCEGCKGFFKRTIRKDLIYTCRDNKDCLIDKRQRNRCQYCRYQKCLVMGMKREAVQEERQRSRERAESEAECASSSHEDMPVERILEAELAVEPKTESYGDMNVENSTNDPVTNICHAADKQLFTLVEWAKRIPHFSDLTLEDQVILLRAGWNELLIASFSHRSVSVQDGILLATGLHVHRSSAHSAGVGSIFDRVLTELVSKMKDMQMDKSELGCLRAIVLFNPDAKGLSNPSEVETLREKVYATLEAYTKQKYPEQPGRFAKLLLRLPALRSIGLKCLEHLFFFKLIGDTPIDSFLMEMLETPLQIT

[6] = biological target: T5, Retinoic acid receptor alpha (Homo sapiens, UniProt P10276); assay: Transcriptional activation in CV-1 cells expressing human Retinoic acid receptor RAR alpha; format: cell-based
T5 sequence (P10276 whole entry): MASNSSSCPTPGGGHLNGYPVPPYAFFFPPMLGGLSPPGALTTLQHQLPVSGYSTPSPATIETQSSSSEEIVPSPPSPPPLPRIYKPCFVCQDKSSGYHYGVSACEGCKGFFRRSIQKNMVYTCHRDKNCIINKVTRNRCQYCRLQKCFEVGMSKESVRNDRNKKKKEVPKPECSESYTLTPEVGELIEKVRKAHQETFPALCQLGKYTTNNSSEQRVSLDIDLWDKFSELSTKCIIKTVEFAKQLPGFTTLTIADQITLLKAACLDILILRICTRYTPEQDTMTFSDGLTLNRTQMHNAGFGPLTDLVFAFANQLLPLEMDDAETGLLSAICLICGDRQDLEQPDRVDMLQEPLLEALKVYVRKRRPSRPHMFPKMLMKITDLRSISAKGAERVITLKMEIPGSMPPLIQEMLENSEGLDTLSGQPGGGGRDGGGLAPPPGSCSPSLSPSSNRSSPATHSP

[7] = biological target: T5, Retinoic acid receptor alpha; assay: Inhibition of [3H]ATRA binding to human Retinoic acid receptor RAR alpha
[8] = biological target: T2, Retinoic acid receptor RXR-alpha; assay: Transcriptional activation in CV-1 cells expressing human Retinoid X receptor RXR-alpha; format: cell-based
[9] = biological target: T6, Retinoic acid receptor RXR-beta (Mus musculus, UniProt P28704); assay: Inhibition of [3H]9-cis-RA binding to mouse Retinoid X receptor RXR beta
T6 sequence (P28704 whole entry): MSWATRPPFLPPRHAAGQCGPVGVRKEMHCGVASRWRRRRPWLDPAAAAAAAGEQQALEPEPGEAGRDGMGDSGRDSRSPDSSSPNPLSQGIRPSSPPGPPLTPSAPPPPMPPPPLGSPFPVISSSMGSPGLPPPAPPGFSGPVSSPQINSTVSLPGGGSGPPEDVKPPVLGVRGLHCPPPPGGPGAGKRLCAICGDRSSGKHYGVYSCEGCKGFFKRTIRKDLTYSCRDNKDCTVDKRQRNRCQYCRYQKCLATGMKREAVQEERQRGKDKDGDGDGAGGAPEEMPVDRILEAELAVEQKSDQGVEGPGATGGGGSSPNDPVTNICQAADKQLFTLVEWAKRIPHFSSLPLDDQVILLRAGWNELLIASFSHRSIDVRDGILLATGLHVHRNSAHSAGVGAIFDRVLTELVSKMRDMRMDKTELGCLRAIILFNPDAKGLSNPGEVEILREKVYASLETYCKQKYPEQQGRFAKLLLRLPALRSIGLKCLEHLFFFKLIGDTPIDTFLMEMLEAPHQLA

[10] = biological target: T6, Retinoic acid receptor RXR-beta; assay: Transcriptional activation in CV-1 cells expressing mouse Retinoid X receptor RXR beta; format: cell-based
[11] = biological target: T1, Retinoic acid receptor gamma; assay: Transcriptional activation in CV-1 cells expressing human Retinoic acid receptor RAR gamma; format: cell-based
[12] = biological target: T7, Retinoic acid receptor RXR-gamma (Homo sapiens, UniProt P48443); assay: Inhibition of [3H]-9-cis-RA binding to human Retinoid X receptor RXR gamma
T7 sequence (P48443 whole entry): T4 sequence (P28705 whole entry) with T13A, F15Y, V31A, P34S, S228T, S230G, V258M, S450T

[13] = biological target: T3, Retinoic acid receptor beta; assay: Transcriptional activation in CV-1 cells expressing human Retinoic acid receptor RAR beta; Not active; format: cell-based
[14] = biological target: T5, Retinoic acid receptor alpha; assay: Transcriptional activation in CV-1 cells expressing human Retinoic acid receptor RAR alpha; Not active; format: cell-based
[15] = biological target: T1, Retinoic acid receptor gamma; assay: Transcriptional activation in CV-1 cells expressing human Retinoic acid receptor RAR gamma; Not active; format: cell-based

Compound	Kd [1] [nM]	Kd [2] [nM]	EC50 [3] [nM]	Kd [4] [nM]	EC50 [5] [nM]	EC50 [6] [nM]	Kd [7] [nM]	EC50 [8] [nM]	Kd [9] [nM]	EC50 [10] [nM]	EC50 [11] [nM]	Kd [12] [nM]	EC50 [13]	EC50 [14]	EC50 [15]
CC(/C=C/CC1(c2cc(C(C)(C)C)cc(C(C)(C)C)c2)CC1)=C\C(=O)O	> 1000	3	139	> 1000	23	733	> 1000	30	8	19	391				
CC(/C=C/CC1(c2cc3c(cc2C)C(C)(C)CCC3(C)C)CC1)=C\C(=O)O	> 1000	16			36		> 1000	31	18	9		153	Not Active	Not Active	Not Active
CC(/C=C/CC1(c2ccc3c(c2)C(C)(C)CCC3(C)C)CCCC1)=C\C(=O)O	> 1000			> 1000	24		> 1000		7	19		6	Not Active	Not Active	Not Active
CC(/C=C/CC1(c2ccc3c(c2)C(C)(C)CCC3(C)C)CC1)=C\C(=O)O												8			
CC(/C=C/CC1(c2cc(C(C)(C)C)cc3c2CCC3(C)C)CC1)=C\C(=O)O	> 1000			> 1000			> 1000					22	Not Active	Not Active	Not Active
